Results from patent publication US20030092684A1, “Compositions and methods for treating hemorrhagic virus infections and other disorders” (priority 1999, published 2003).
Where “and” joins values, the source holds several entries; their conditions need not be identical. Equal values may be shown once. Read-outs that look alike come from different tables or passages of the source.

Key:
[1] = tested on: IL-1, IL-1Ra, TNF and soluble TNF receptor (sTNFR); design: species or system BALB/c mice; conditions: mouse, in vivo
[2] = tested on: Marburg virus strain Popp; design: species or system guinea-pigs; conditions: guinea pig, in vivo; monohydrate
Dengue virus, type 2 = tested on: Dengue virus, type 2; design: species or system BALB/c mice; conditions: mouse, in vivo
[3] = 7 day period without viral infection
[4] = tested on: IL-1, TNF, IL-1RA and sTNFr; assay: Serum IL-1, TNF, IL-1RA and sTNFr during treatment of Dengue virus infection (Example 2); type: in vivo, BALB/c mice
[5] = tested on: Lassa virus strain Josiah; design: species or system BALB/c mice; conditions: mouse, in vivo
[6] = 58 mg/kg i.m. during 17 day period without virus injection
[7] = tested on: IL-1, TNF, IL-1 RA and sTNFr; assay: Serum IL-1, TNF, IL-1RA and sTNFr after Doxycycline injection in uninfected mice (Group 1); type: in vivo, BALB/c mice; conditions: 58 mg/kg i.m. every day for 4 days
[8] = day 0, 58 mg/kg i.m. daily day 2-5 after infection (Group 3)
[9] = day 0, 58 mg/kg i.m. daily day 3-5 after infection (Group 4)
[10] = day 1, 58 mg/kg i.m. daily day 2-5 after infection (Group 3)
[11] = day 1, 58 mg/kg i.m. daily day 3-5 after infection (Group 4)
[12] = day 2, 58 mg/kg i.m. daily day 2-5 after infection (Group 3)
[13] = day 2, 58 mg/kg i.m. daily day 3-5 after infection (Group 4)
[14] = day 3, 58 mg/kg i.m. daily day 2-5 after infection (Group 3)
[15] = day 3, 58 mg/kg i.m. daily day 3-5 after infection (Group 4)
[16] = day 4, 58 mg/kg i.m. daily day 2-5 after infection (Group 3)
[17] = day 4, 58 mg/kg i.m. daily day 3-5 after infection (Group 4)
[18] = day 5, 58 mg/kg i.m. daily day 2-5 after infection (Group 3)
[19] = day 5, 58 mg/kg i.m. daily day 3-5 after infection (Group 4)

Question: Which results are given for `CC1c2cccc(O)c2C(=O)C2=C(O)C3(O)C(=O)C(C(N)=O)=C(O)C(N(C)C)C3C(O)C21.O` (centres unmarked) [Doxycycline, 4-(Dimethylamino)-1,4,4a,5,5a,6,11,12a-octahydro-3,5,10,12,12a-pentahydroxy-6-methyl-1, 11-dioxo-2-naphthacenecarboxamide monohydrate]?
Answer: increase of the ratio of IL-1/IL-1Ra over the base level [1]: about 5 fold; m.t.d. (mean time to death) [2]: 7.6 and 8.54 and 7.69; Survival/dead (Dengue virus, type 2): 0/10; mice dead on 4 day (Dengue virus, type 2): 4 mice - on 4 day; mice dead on 5 day (Dengue virus, type 2): 5 mice - on 5 day; mice dead on 6 day (Dengue virus, type 2): 1 mice - on 6 day; mice dead on day 6 (Dengue virus, type 2): 10 mice on day 6; Survival/dead (Dengue virus, type 2; 58 mg/kg, monohydrate): 10/0 and 0/10 and 6/4 and 2/4 and 1/3 and 0/1; toxicity to control groups [3]: not toxic; death ([3]; of 20 mice): 0; survival ([3]; of 20 mice): 20; I + II [4, 8]: 0.151; IL-1 [4, 8]: 2.95 pg/mL; IL-1/IL-IRA (I) [4, 8]: 0.083; IL-IRA [4, 8]: 30 pg/mL; TNF [4, 8]: 1.17 pg/mL; TNF/sTNF (II) [4, 8]: 0.068; sTNFrl [4, 8]: 17 pg/mL; I + II [4, 9]: 0.151; IL-1 [4, 9]: 2.95 pg/mL; IL-1/IL-IRA (I) [4, 9]: 0.083; IL-IRA [4, 9]: 30 pg/mL; TNF [4, 9]: 1.17 pg/mL; TNF/sTNF (II) [4, 9]: 0.068; sTNFrl [4, 9]: 17 pg/mL; I + II [4, 10]: 0.407; IL-1 [4, 10]: 10.6 pg/mL; IL-1/IL-IRA (I) [4, 10]: 0.151; IL-IRA [4, 10]: 70 pg/mL; TNF [4, 10]: 8.19 pg/mL; TNF/sTNF (II) [4, 10]: 0.256; sTNFrl [4, 10]: 32 pg/mL; I + II [4, 11]: 0.407; IL-1 [4, 11]: 10.6 pg/mL; IL-1/IL-IRA (I) [4, 11]: 0.151; IL-IRA [4, 11]: 70 pg/mL; TNF [4, 11]: 8.19 pg/mL; TNF/sTNF (II) [4, 11]: 0.256; sTNFrl [4, 11]: 32 pg/mL; I + II [4, 12]: 0.985; IL-1 [4, 12]: 16.8 pg/mL; IL-1/IL-IRA (I) [4, 12]: 0.258; IL-IRA [4, 12]: 65 pg/mL; TNF [4, 12]: 26.9 pg/mL; TNF/sTNF (II) [4, 12]: 0.727; sTNFrl [4, 12]: 37 pg/mL; I + II [4, 13]: 0.985; IL-1 [4, 13]: 16.8 pg/mL; IL-1/IL-IRA (I) [4, 13]: 0.258; IL-IRA [4, 13]: 65 pg/mL; TNF [4, 13]: 26.9 pg/mL; TNF/sTNF (II) [4, 13]: 0.727; sTNFrl [4, 13]: 37 pg/mL; I + II [4, 14]: 0.643; IL-1 [4, 14]: 17.9 pg/mL; IL-1/IL-IRA (I) [4, 14]: 0.211; IL-IRA [4, 14]: 85 pg/mL; TNF [4, 14]: 19.89 pg/mL; TNF/sTNF (II) [4, 14]: 0.432; sTNFrl [4, 14]: 46 pg/mL; I + II [4, 15]: 1.161; IL-1 [4, 15]: 26.7 pg/mL; IL-1/IL-IRA (I) [4, 15]: 0.381; IL-IRA [4, 15]: 70 pg/mL; TNF [4, 15]: 35.1 pg/mL; TNF/sTNF (II) [4, 15]: 0.780; sTNFrl [4, 15]: 45 pg/mL; I + II [4, 16]: 0.809; IL-1 [4, 16]: 24.18 pg/mL; IL-1/IL-IRA (I) [4, 16]: 0.318; IL-IRA [4, 16]: 76 pg/mL; TNF [4, 16]: 24.57 pg/mL; TNF/sTNF (II) [4, 16]: 0.491; sTNFrl [4, 16]: 50 pg/mL; I + II [4, 17]: 1.375; IL-1 [4, 17]: 30.42 pg/mL; IL-1/IL-IRA (I) [4, 17]: 0.400; IL-IRA [4, 17]: 76 pg/mL; TNF [4, 17]: 46.8 pg/mL; TNF/sTNF (II) [4, 17]: 0.975; sTNFrl [4, 17]: 48 pg/mL; I + II [4, 18]: 4.14; IL-1 [4, 18]: 30.42 pg/mL; IL-1/IL-IRA (I) [4, 18]: 0.390; IL-IRA [4, 18]: 78 pg/mL; TNF [4, 18]: 262.5 pg/mL; TNF/sTNF (II) [4, 18]: 3.75; sTNFrl [4, 18]: 70 pg/mL; I + II [4, 19]: 5.256; IL-1 [4, 19]: 36.6 pg/mL; IL-1/IL-IRA (I) [4, 19]: 0.435; IL-IRA [4, 19]: 84 pg/mL; TNF [4, 19]: 337.5 pg/mL; TNF/sTNF (II) [4, 19]: 4.821; sTNFrl [4, 19]: 70 pg/mL; survival [5]: 70%; death ([5]; 58 mg/kg): 6; toxicity to control groups [6]: not toxic; survival ([6]; of 6 guinea pigs): 6; I + II ([7]; day 0, before the injection): 0.166; IL-1 ([7]; day 0, before the injection): 2.95 pg/mL; IL-1/IL-IRA (I) ([7]; day 0, before the injection): 0.098; IL-IRA ([7]; day 0, before the injection): 30 pg/mL; TNF ([7]; day 0, before the injection): 1.17 pg/mL; TNF/sTNFrl (II) ([7]; day 0, before the injection): 0.068; sTNFrl ([7]; day 0, before the injection): 17 pg/mL; I + II ([7]; day 1 after the injection): 0.187; IL-1 ([7]; day 1 after the injection): 20.62 pg/mL; IL-1/IL-IRA (I) ([7]; day 1 after the injection): 0.115; IL-IRA ([7]; day 1 after the injection): 180 pg/mL; TNF ([7]; day 1 after the injection): 4.68 pg/mL; TNF/sTNFrl (II) ([7]; day 1 after the injection): 0.072; sTNFrl ([7]; day 1 after the injection): 85 pg/mL; I + II ([7]; day 2 after the injection): 0.753; IL-1 ([7]; day 2 after the injection): 17.43 pg/mL; IL-1/IL-IRA (I) ([7]; day 2 after the injection): 0.291; IL-IRA ([7]; day 2 after the injection): 60 pg/mL; TNF ([7]; day 2 after the injection): 17.55 pg/mL; TNF/sTNFrl (II) ([7]; day 2 after the injection): 0.462; sTNFrl ([7]; day 2 after the injection): 38 pg/mL; I + II ([7]; day 3 after the injection): 0.486; IL-1 ([7]; day 3 after the injection): 17.48 pg/mL; IL-1/IL-IRA (I) ([7]; day 3 after the injection): 0.219; IL-IRA ([7]; day 3 after the injection): 80 pg/mL; TNF ([7]; day 3 after the injection): 9.36 pg/mL; TNF/sTNFrl (II) ([7]; day 3 after the injection): 0.267; sTNFrl ([7]; day 3 after the injection): 35 pg/mL; I + II ([7]; day 4 after the injection): 0.318; IL-1 ([7]; day 4 after the injection): 17.93 pg/mL; IL-1/IL-IRA (I) ([7]; day 4 after the injection): 0.102; IL-IRA ([7]; day 4 after the injection): 175 pg/mL; TNF ([7]; day 4 after the injection): 8.19 pg/mL; TNF/sTNFrl (II) ([7]; day 4 after the injection): 0.216; sTNFrl ([7]; day 4 after the injection): 38 pg/mL
